One experiment concerns the target full-length human LSD1 (Homo sapiens (Human), UniProt O60341). Kind of experiment: In Vitro Enzyme Inhibition Assay—LSD-1 (TR-FRET). Conditions: H3K4me1-biotin labeled peptide. It is filed as biochemical. Here is the method:
This assay determines the ability of a test compound to inhibit LSD1 demethylase activity. E. coli expressed full-length human LSD1 (Accession number 060341) was purchased from Active Motif (Cat#31334).
The enzymatic assay of LSD1 activity is based on Time Resolved-Fluorescence Resonance Energy Transfer (TR-FRET) detection. The inhibitory properties of compounds to LSD1 were determined in 384-well plate format under the following reaction conditions: 0.1-0.5 nM LSD1, 50 nM H3K4me1-biotin labeled peptide (Anaspec cat #64355), 2 μM FAD in assay buffer of 50 mM HEPES, pH7.3, 10 mM NaCl, 0.005% Brij35, 0.5 mM TCEP, 0.2 mg/ml BSA. Reaction product was determined quantitatively by TR-FRET after the addition of detection reagent Phycolink Streptavidin-allophycocyanin (Prozyme) and Europium-anti-unmodified histone H3 lysine 4 (H3K4) antibody (PerkinElmer) in the presence of LSD1 inhibitor such as 1.8 mM of Tranylcypromine hydrochloride (2-PCPA) in LANCE detection buffer (PerkinElmer) to final concentration of 12.5 nM and 0.25 nM respectively.
The assay reaction was performed according to the following procedure: 2 μL of the mixture of 150 nM H3K4me1-biotin labeled peptide with 2 μL of 11-point serial diluted test compound in 3% DMSO were added to each well of plate, followed by the addition of 2 μL of 0.3 nM LSD1 and 6 μM of FAD to initiate the reaction. The reaction mixture was then incubated at room temperature for one hour, and terminated by the addition of 6 μL of 1.8 mM 2-PCPA in LANCE detection buffer containing 25 nM Phycolink Streptavidin-allophycocyanin and 0.5 nM Europium-anti-unmodified H3K4 antibody. Enzymatic reaction is terminated within 15 minutes if 0.5 LSD1 enzyme is used in the plate. Plates were read by EnVision Multilabel Reader in TR-FRET mode (excitation at 320 nm, emission at 615 nm and 665 nm) after 1 hour incubation at room temperature. A ratio was calculated (665/615) for each well and fitted to determine inhibition constant (IC50).
The ability of the compounds disclosed herein to inhibit LSD1 activity was quantified and the respective IC50 value was determined. Table 3 provides the IC50 values of various substituted heterocyclic compounds disclosed herein.
(In general: Time-resolved FRET reads energy transfer from a long-lived donor to a nearby acceptor.)

In another experiment the test system is THP-1 (AML) cells. Kind of experiment: LSD1 CD11b Cellular Assay (flow cytometry). It is filed as cell-based. Conditions: Homo sapiens, 96 h; CD11b expression in THP-1 cells, 4 days. Here is the method:
To analyze LSD1 inhibitor efficacy in cells, a CD11b flow cytometry assay was performed. LSD1 inhibition induces CD11b expression in THP-1 (AML) cells which can be measured by flow cytometry. […] LSD1 test compounds were serially diluted in DMSO. The dilutions were added to each well accordingly to a final concentration of 0.2% DMSO. The cells were incubated at 37 degrees Celsius in 5% CO2 for 4 days. 250 μL of each well was transferred to a well in a 96 well round bottom plate. The plate was centrifuged at 1200 rpm at 4 degrees Celsius in a Beckman Coulter Alegra 6KR centrifuge for 5 minutes. The media was removed leaving the cells at the bottom of the wells. The cells were washed in 100 μL cold HBSS (Hank's Balanced Salt Solution) plus 2% BSA (Bovine Serum Albumin) solution and centrifuged at 1200 rpm at 4 degrees Celsius for 5 minutes. The wash was removed. […] The cells were centrifuged and washed two times in 100 μl HBSS plus 2% BSA. After the final spin the cells were resuspended in 100 μL HBSS plus 2% BSA containing 1 ug/mL DAPI (4′,6-diamidino-2-phenylindole). The cells were then analyzed by flow cytometry in a BD FACSAria machine. Cells were analyzed for CD11b expression. The percent of CD11b expressing cells for each inhibitor concentration was used to determine an IC50 curve for each compound analyzed.
Background: A flow cytometer gives signals particle by particle.

Molecules are shown by their SMILES.

The IC50 is the midpoint of a concentration-inhibition curve. `N#Cc1ccc(-c2nc(N3CC[C@@H]4CNC[C@@H]4CC3)sc2-c2cnn(CC3CC3)c2)cc1` [Example 15, 4-{5-[1-(cyclopropylmethyl)-1H-pyrazol-4-yl]-2-{decahydropyrrolo[3,4-d]azepin-6-yl}-1,3-thiazol-4-yl}benzonitrile]: the IC50 was at most 0.1 µM against full-length human LSD1 and 0.1 to 1 µM in the experiment on THP-1 (AML) cells.

In the case of `Cn1cnc2cc(-c3sc(C(=O)N4CCC[C@@H](N)C4)nc3-c3ccc(C#N)cc3)ccc21` [Example 16, 4-{2-[(3R)-3-aminopiperidine-1-carbonyl]-5-(1-methyl-1H-1,3-benzodiazol-5-yl)-1,3-thiazol-4-yl}benzonitrile], the IC50 against full-length human LSD1 is at most 0.1 µM; in the experiment on THP-1 (AML) cells it was below 0.1 µM.

`Cn1ncc2cc(-c3sc(N4CC[C@@H]5CNC[C@@H]5CC4)nc3-c3ccc(C#N)cc3)ccc21` [Example 2, cis-4-(2-{decahydropyrrolo[3,4-d]azepin-6-yl}-5-(1-methyl-1H-indazol-5-yl)-1,3-thiazol-4-yl)benzonitrile] yielded an IC50 in the experiment on THP-1 (AML) cells below 0.1 µM.

Take `Cn1ncc2cc(-c3sc(N4CCC(N)CC4)nc3-c3ccc(C#N)cc3)cnc21` [Example 4, 4-[2-(4-aminopiperidin-1-yl)-5-{1-methyl-1H-pyrazolo[3,4-b]pyridin-5-yl}-1,3-thiazol-4-yl]benzonitrile]: the IC50 against full-length human LSD1 is at most 0.1 µM; in the experiment with THP-1 (AML) cells, below 0.1 µM.

Turning to `Cn1cc2cc(-c3sc(N4CCC(N)CC4)nc3-c3ccc(C#N)cc3)ccc2n1` [Example 34], the IC50 against full-length human LSD1 was at most 0.1 µM; with THP-1 (AML) cells, below 0.1 µM.

As to `N#Cc1ccc(-c2nc(C(=O)N3CCC[C@@H](N)C3)sc2-c2cnn(CC3CC3)c2)cc1` [Example 22, 4-{2-[(3R)-3-aminopiperidine-1-carbonyl]-5-[1-(cyclopropylmethyl)-1H-pyrazol-4-yl]-1,3-thiazol-4-yl}benzonitrile], the figures for the IC50 against full-length human LSD1 and with THP-1 (AML) cells were at most 0.1 µM and 0.1 to 1 µM, respectively.

With `Cn1cnc2cc(-c3sc(N4CC[C@@H]5CNC[C@@H]5CC4)nc3-c3ccc(C#N)cc3)ccc21` [Example 10, cis-4-(2-{decahydropyrrolo[3,4-d]azepin-6-yl}-5-(1-methyl-1H-1,3-benzodiazol-5-yl)-1,3-thiazol-4-yl)benzonitrile], the figures for the IC50 on full-length human LSD1 and in the experiment with THP-1 (AML) cells were at most 0.1 µM and below 0.1 µM, respectively.

Regarding `Cn1ncc2cc(-c3sc(N4CCC5CNCC5C4)nc3-c3ccc(C#N)cc3)ccc21` (stereo not shown) [Example 7], the IC50 on full-length human LSD1 was at most 0.1 µM; in the experiment with THP-1 (AML) cells, below 0.1 µM.

For the compound `N#Cc1ccc(-c2nc(N3CC[C@@H]4CNC[C@@H]4CC3)sc2-c2cnn(CC(F)(F)F)c2)cc1` [Example 13, 4-(2-{decahydropyrrolo[3,4-d]azepin-6-yl}-5-[1-(2,2,2-trifluoroethyl)-1H-pyrazol-4-yl]-1,3-thiazol-4-yl)benzonitrile], the IC50 at full-length human LSD1 was at most 0.1 µM; in the experiment with THP-1 (AML) cells, below 0.1 µM.

Turning to `N#Cc1ccc(-c2nc(N3CCC(N)CC3)sc2-c2cnn(CC(F)(F)F)c2)cc1` [Example 12, 4-[2-(4-aminopiperidin-1-yl)-5-[1-(2,2,2-trifluoroethyl)-1H-pyrazol-4-yl]-1,3-thiazol-4-yl]benzonitrile], the IC50 is at most 0.1 µM at full-length human LSD1 and below 0.1 µM in the experiment with THP-1 (AML) cells.

On to `Cc1ccc(-c2sc(C(=O)N3CCC[C@@H](N)C3)nc2-c2ccc(C#N)cc2)cc1` [Example 19, 4-{2-[(3R)-3-aminopiperidine-1-carbonyl]-5-(4-methylphenyl)-1,3-thiazol-4-yl}benzonitrile], for which the IC50 against full-length human LSD1 is at most 0.1 µM; in the experiment on THP-1 (AML) cells, below 0.1 µM.

As for `N#Cc1ccc(-c2nc(N3CCC(N)CC3)cc(=O)n2-c2ccc(C3CC3)c(F)c2)cc1F` [Example 33, 4-[4-(4-aminopiperidin-1-yl)-1-(4-cyclopropyl-3-fluorophenyl)-6-oxopyrimidin-2-yl]-2-fluorobenzonitrile], the IC50 at full-length human LSD1 is at most 0.1 µM; in the experiment on THP-1 (AML) cells it was below 0.1 µM.

Consider `COc1ccc(-n2c(-c3ccc(C#N)c(F)c3)nc(N3CCC(N)CC3)cc2=O)cc1F` [Example 30, 4-[4-(4-aminopiperidin-1-yl)-1-(3-fluoro-4-methoxyphenyl)-6-oxopyrimidin-2-yl]-2-fluorobenzonitrile], for which the IC50 at full-length human LSD1 was at most 0.1 µM; with THP-1 (AML) cells it was 0.1 to 1 µM.

In the case of `Cn1ncc2cc(-c3sc(N4CCC5NCCC5C4)nc3-c3ccc(C#N)cc3)ccc21` (stereo not shown) [Example 6], the IC50 was at most 0.1 µM at full-length human LSD1 and below 0.1 µM with THP-1 (AML) cells.

`Cn1ncc2cc(-c3sc(N4CCC(N)CC4)nc3-c3ccc(C#N)cc3)ccc21` [Example 1, 4-[2-(4-aminopiperidin-1-yl)-5-(1-methyl-1H-indazol-5-yl)-1,3-thiazol-4-yl]benzonitrile]: the results for the IC50 at full-length human LSD1 and with THP-1 (AML) cells were at most 0.1 µM and below 0.1 µM, respectively.

Take `Cn1cnc2cc(-c3sc(C(=O)N4CCC(N)CC4)nc3-c3ccc(C#N)cc3)ccc21` [Example 18, 4-[2-(4-aminopiperidine-1-carbonyl)-5-(1-methyl-1H-1,3-benzodiazol-5-yl)-1,3-thiazol-4-yl]benzonitrile]: the results for the IC50 against full-length human LSD1 and with THP-1 (AML) cells were at most 0.1 µM and below 0.1 µM, respectively.

Turning to `N#Cc1ccc(-c2nc(N3CCC(N)CC3)sc2-c2cnn(CC3CC3)c2)cc1` [Example 14, 4-[2-(4-aminopiperidin-1-yl)-5-[1-(cyclopropylmethyl)-1H-pyrazol-4-yl]-1,3-thiazol-4-yl]benzonitrile], the IC50 at full-length human LSD1 was at most 0.1 µM; with THP-1 (AML) cells, 0.1 to 1 µM.

On to `Cn1cnc2cc(-c3sc(C(=O)N4CCC[C@H](N)C4)nc3-c3ccc(C#N)cc3)ccc21` [Example 17, 4-{2-[(3 S)-3-aminopiperidine-1-carbonyl]-5-(1-methyl-1H-1,3-benzodiazol-5-yl)-1,3-thiazol-4-yl}benzonitrile], for which the IC50 was at most 0.1 µM at full-length human LSD1 and below 0.1 µM with THP-1 (AML) cells.

`Cn1ccc2cc(-c3sc(N4CCC(N)CC4)nc3-c3ccc(C#N)cc3)cnc21` [Example 3, 4-[2-(4-aminopiperidin-1-yl)-5-{1-methyl-1H-pyrrolo[2,3-b]pyridin-5-yl}-1,3-thiazol-4-yl]benzonitrile]: the IC50 is at most 0.1 µM against full-length human LSD1 and below 0.1 µM in the experiment on THP-1 (AML) cells.

For the compound `Cn1cc2cc(-n3c(-c4ccc(C#N)c(F)c4)nc(N4CCC(N)CC4)cc3=O)ccc2n1` [Example 31, 4-[4-(4-aminopiperidin-1-yl)-1-(2-methylindazol-5-yl)-6-oxopyrimidin-2-yl]-2-fluorobenzonitrile], the IC50 on full-length human LSD1 was at most 0.1 µM; with THP-1 (AML) cells, 0.1 to 1 µM.

As to `N#Cc1ccc(-c2nc(C(=O)N3CCC[C@@H](N)C3)sc2-c2cnn(CC(F)(F)F)c2)cc1` [Example 21, 4-{2-[(3R)-3-aminopiperidine-1-carbonyl]-5-[1-(2,2,2-trifluoroethyl)-1H-pyrazol-4-yl]-1,3-thiazol-4-yl}benzonitrile], the IC50 is at most 0.1 µM against full-length human LSD1 and below 0.1 µM with THP-1 (AML) cells.

Consider `N#Cc1ccc(-c2nc(N3CCC4(CCNC4)CC3)cc(=O)n2-c2ccc(C3CC3)cc2)cc1F` [Example 29, 4-[1-(4-cyclopropylphenyl)-4-(2,8-diazaspiro[4.5]decan-8-yl)-6-oxopyrimidin-2-yl]-2-fluorobenzonitrile], for which the IC50 against full-length human LSD1 is at most 0.1 µM; with THP-1 (AML) cells, below 0.1 µM.

As to `N#Cc1ccc(-c2nc(N3CCC4NCCC4C3)cc(=O)n2-c2ccc(C3CC3)cc2)cc1F` (stereo not shown) [Example 27, 4-[4-(1,2,3,3a,4,6,7,7a-octahydropyrrolo[3,2-c]pyridin-5-yl)-1-(4-cyclopropylphenyl)-6-oxopyrimidin-2-yl]-2-fluorobenzonitrile], the IC50 against full-length human LSD1 is at most 0.1 µM; in the experiment with THP-1 (AML) cells, below 0.1 µM.

On full-length human LSD1, `COc1ccc(-n2c(-c3ccc(C#N)c(F)c3)nc(N3CCC(N)CC3)cc2=O)cc1` [Example 32, 4-[4-(4-aminopiperidin-1-yl)-1-(4-methoxyphenyl)-6-oxopyrimidin-2-yl]-2-fluorobenzonitrile] had an IC50 of at most 0.1 µM.
